Measurements from article PMC3440242 (Peptides, 2012).
Like-named read-outs stand apart in the source and are kept apart here.

Legend:
hY2-CHO receptor [1] = experiment: Depletion of hY2-CHO surface receptors by agonists; format: cell-based, human; details: exponential + linear model, four experiments
hY2-CHO receptor [2] = details: read-out: Scatchard affinity / Kdiss, ref [37]; cited from earlier work
guinea pig Y2 receptor = experiment: Unmasking of surface guinea pig Y2 receptor in adherent CHO cells; format: cell-based; details: 30 μM agent, 20 min at 37 °C, 50 pM [^125I] hPYY(3-36), at least three experiments
Y1 receptor = experiment: Agonist binding to surface Y1 receptor in CHO monolayers after unmasking agent; format: cell-based; details: 30 μM digitonin pretreatment, 20 min at 37 °C; 50 pM [^125I] hNPY
Y4 receptor = experiment: Agonist binding to surface Y4 receptor in CHO monolayers after unmasking agent; format: cell-based; details: 30 μM digitonin pretreatment, 20 min at 37 °C; 50 pM [^125I] hPP
[3] = test system: G-protein nucleotide sites (Gi3 α subunit); format: cell-based
CHO cells [4] = test system: CHO cells
[5] = stated without reference; cited from earlier work
CHO cells [6] = experiment: Permeabilization of CHO cells; details: 20 min at 37 °C
CHO cells [7] = test system: CHO cells; remark: listed apart in the source
Y2 receptor [8] = target: T1, Y2 receptor (Homo sapiens, UniProt P49146); experiment: Particulate Y2 agonist binding
T1 sequence (P49146 1-381): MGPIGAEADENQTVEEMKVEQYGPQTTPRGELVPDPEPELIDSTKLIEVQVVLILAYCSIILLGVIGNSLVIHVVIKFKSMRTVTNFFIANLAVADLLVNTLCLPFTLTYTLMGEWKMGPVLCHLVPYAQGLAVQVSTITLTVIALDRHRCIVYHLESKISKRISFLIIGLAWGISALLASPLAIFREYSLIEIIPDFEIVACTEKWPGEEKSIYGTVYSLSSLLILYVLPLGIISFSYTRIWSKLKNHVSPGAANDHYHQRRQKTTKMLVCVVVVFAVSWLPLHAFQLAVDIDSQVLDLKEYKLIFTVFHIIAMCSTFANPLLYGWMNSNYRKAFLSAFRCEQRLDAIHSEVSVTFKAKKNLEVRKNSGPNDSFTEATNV

[9] = target: G-protein nucleotide sites (Gi α subunits) (Cricetulus griseus, UniProt Q60397); experiment: ^35S-GTPγS binding to Y2-CHO particulates; details: Y2-CHO cells
Y2 receptor [10] = target: T1, Y2 receptor; details: read-out: ic50, [^125I] hPYY(3-36) binding to particulate Y2 receptor; cited from earlier work
CHO cells [11] = experiment: Cell detachment, protein loss and lysis of CHO cells

Sequence of G-protein nucleotide sites (Gi α subunits) (Q60397 2-354): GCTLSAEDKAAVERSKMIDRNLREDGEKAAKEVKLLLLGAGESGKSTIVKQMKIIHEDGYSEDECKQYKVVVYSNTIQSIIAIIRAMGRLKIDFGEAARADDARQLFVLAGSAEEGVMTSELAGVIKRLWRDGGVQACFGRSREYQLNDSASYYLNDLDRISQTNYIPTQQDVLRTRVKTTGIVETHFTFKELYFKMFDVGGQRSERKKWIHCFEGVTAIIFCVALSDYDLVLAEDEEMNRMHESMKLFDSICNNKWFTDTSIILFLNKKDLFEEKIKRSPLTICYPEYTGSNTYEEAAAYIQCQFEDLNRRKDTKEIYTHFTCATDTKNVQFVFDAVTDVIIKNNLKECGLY

## LRHYLNLLTRORY [AcLeu, human neuropeptide Y(24-36), acetyl-Leu(28, 31)]
hY2-CHO receptor [1]; + 30 μM PAO
  % total depletion in component 1: 15.6 ± 3.9%
  K1 (exponential component): 3.0 ± 0.75 nM
  K2 (linear component): 243 ± 15 nM
hY2-CHO receptor [1]; without PAO
  % total depletion in component 1: 32.8 ± 8.5 %
  K1 (exponential component): 6.2 ± 1.6 nM
  K2 (linear component): 153 ± 17 nM
hY2-CHO receptor [2]
  Kd: 0.0005 µM

## C[C@@H]1CC[C@@]2(OC1)O[C@H]1[C@@H](O)[C@H]3[C@@H]4CC[C@H]5C[C@@H](O[C@@H]6O[C@H](CO)[C@H](O[C@@H]7O[C@H](CO)[C@@H](O)[C@H](O[C@@H]8OC[C@@H](O)[C@H](O)[C@H]8O)[C@H]7O[C@@H]7O[C@H](CO)[C@H](O)[C@H](O[C@@H]8O[C@H](CO)[C@@H](O)[C@H](O)[C@H]8O)[C@H]7O)[C@H](O)[C@H]6O)[C@H](O)C[C@]5(C)[C@H]4CC[C@]3(C)[C@H]1[C@@H]2C [digitonin]
Guinea pig Y2 receptor
  increase of labeling of adherent confluent Y2-CHO cells: about 4 fold
Y1 receptor
  effect on Y1-CHO surface sites: did not increase the Y1-CHO or Y4-CHO surface sites
Y4 receptor
  effect on Y4-CHO surface sites: did not increase the Y1-CHO or Y4-CHO surface sites
[3]
  digitonin range in which ^35S-GTPγS binding saturates: 3 to 30 µM
  increase of ^35S-GTPγS binding to intact CHO cells: 10-15 fold
CHO cells [4]
  concentration above which CHO cells and particulates are lysed: above 1 mM
  concentration above which protein leakage is observed: above 30 μM
  concentration at/above which cell detachment is found: about 50 μM
[5]
  critical micellar concentration: ≥ 100 µM
CHO cells [6]; judged by labeling by ^35S-GTPγS
  concentration at which permeabilization reached a plateau: 20 µM

## C[C@H](CCC(=O)O)[C@H]1CC[C@H]2[C@@H]3[C@H](O)C[C@@H]4C[C@H](O)CC[C@]4(C)[C@H]3C[C@H](O)[C@]12C [cholate]
CHO cells [7]
  permeabilization of CHO cells (in words): did not permeabilize CHO cells at 100 μM
CHO cells [4]
  concentration above which CHO cells and particulates are lysed: above 1 mM

## CCCCC[C@@H](O)[C@H]1C(=O)O[C@H](C)[C@@H](O)/C=C/C=C/C=C/C=C/C=C(\C)[C@@H](O)C[C@H](O)C[C@H](O)C[C@H](O)C[C@H](O)C[C@H](O)C[C@@H]1O [filipin III]
[3]
  ^35S-GTPγS binding to Y2-CHO cells (in words): highly variable
Y2 receptor [8]
  effect on particulate Y2 agonist binding (in words): no loss of either particulate or surface Y2 sites
Y2 receptor [8]; read-out: ic50, agonist binding to Y2-CHO particulates
  IC50: ~100 µM
CHO cells [4]
  concentration at which cell lysis starts: about 10 μM
  concentration at/above which cell detachment is found: above 15 μM
  loss of mainly cytosolic protein: about 40%
CHO cells [6]; filipin III
  concentration range inducing permeabilization: 0.6 to 3 µM

## pertussis toxin: toxin used at 1 ng/ml for 21 h
[3]
  ^35S-GTPγS binding to Y2-CHO cells (in words): highly sensitive to cell pretreatment with pertussis toxin

## Nc1nc2c(ncn2[C@@H]2O[C@H](COP(=O)(O)OP(=O)(O)OP(O)(O)=S)[C@@H](O)[C@H]2O)c(=O)[nH]1 [^35S-GTPγS, guanosine 5′-O-(3-thiotriphosphate]
[9]
  total particulate nucleotide sites: 32 ± 0.7 fmol/100,000 cells

## C[N+](C)(C)CCSS(C)(=O)=O [MTSET, 2-[trimethylammonium)ethyl] methanethiosulfonate]
Y2 receptor [10]
  IC50: 264 ± 27 µM

## polyoxyethylene(20)sorbitan monooleate [Tween 80]
CHO cells [7]
  permeabilization of CHO cells (in words): did not permeabilize CHO cells at 100 μM

## CCN1C(=O)C=CC1=O [NEM, N-Ethylmaleimide]
Y2 receptor [10]
  IC50: 146 ± 14 µM

## C[C@H](CCC(=O)NCCC[N+](C)(C)CCCS(=O)(=O)[O-])[C@H]1CC[C@H]2[C@@H]3[C@H](O)C[C@@H]4C[C@H](O)CC[C@]4(C)[C@H]3C[C@H](O)[C@]12C [CHAPS, 3-[(3-Cholamidopropyl)dimethylammonio]-1-propanesulfonate]
CHO cells [11]
  concentration above which CHO cells and particulates are lysed: above 1 mM
